# Results as given in patent publication US9840513B2 (AbbVie S.à.r.l., priority 2015, dated 2017).
# Target: T1, F508delCFTR cell surface expression in CFBE41o-F508delCFTR-HRP cells (Homo sapiens, UniProt P13569, DEL508-508)
# T1 construct: fused on or other part: Horseradish peroxidase (HRP) reporter inserted in the fourth exofacial (extracellular) loop of CFTR; expression is doxycycline-inducible
# Assay: Cell Surface Expression-Horse Radish Peroxidase (CSE-HRP) Assay
# Type: cell-based
# Details: for EC50: CFBE41o-F508delCFTR-HRP cells, 18-24 hours at 33° C., 8-point curve, highest concentration 20 μM; for Maximum % activity (%): maximum at any tested concentration, normalized to on-plate positive control (3 μM)
# Outline: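 CFBE41o- cells with HRP-tagged F508delCFTR, expression induced by 0.5 μg/mL doxycycline for 72 h at 37 °C, then compound for 18-24 h at 33 °C (8-point, 3-fold, top 20 μM). Surface HRP measured by luminol luminescence; % activity normalised to 3 μM positive-control corrector; EC50 from variable-slope sigmoidal fit, three replicate plates.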
# T1 sequence (P13569 with tags, fused parts or gaps DEL508-508 limits assumed): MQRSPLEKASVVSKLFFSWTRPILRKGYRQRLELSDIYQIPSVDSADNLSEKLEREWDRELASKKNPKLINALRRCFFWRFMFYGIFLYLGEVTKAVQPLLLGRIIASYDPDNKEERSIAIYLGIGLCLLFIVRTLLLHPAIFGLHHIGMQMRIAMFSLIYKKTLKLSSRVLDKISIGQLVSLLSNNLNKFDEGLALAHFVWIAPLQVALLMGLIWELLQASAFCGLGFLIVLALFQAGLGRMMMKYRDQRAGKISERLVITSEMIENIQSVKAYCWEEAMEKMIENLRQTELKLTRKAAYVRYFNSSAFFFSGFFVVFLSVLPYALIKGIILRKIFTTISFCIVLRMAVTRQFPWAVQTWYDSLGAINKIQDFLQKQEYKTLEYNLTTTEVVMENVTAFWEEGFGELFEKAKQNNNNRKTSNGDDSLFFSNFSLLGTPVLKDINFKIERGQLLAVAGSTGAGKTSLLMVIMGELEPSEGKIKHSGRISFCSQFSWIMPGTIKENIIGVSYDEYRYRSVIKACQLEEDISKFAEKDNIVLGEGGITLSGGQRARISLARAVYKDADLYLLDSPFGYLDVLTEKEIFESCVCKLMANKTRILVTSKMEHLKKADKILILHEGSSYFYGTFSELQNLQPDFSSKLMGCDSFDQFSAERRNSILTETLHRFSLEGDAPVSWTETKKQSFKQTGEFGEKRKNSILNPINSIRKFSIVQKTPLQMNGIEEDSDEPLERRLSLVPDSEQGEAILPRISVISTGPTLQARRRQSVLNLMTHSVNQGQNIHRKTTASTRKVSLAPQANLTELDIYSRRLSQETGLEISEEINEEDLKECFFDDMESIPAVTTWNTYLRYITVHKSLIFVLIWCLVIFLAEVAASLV
# T1 sequence (P13569 919-1480 limits assumed, stated change not applied): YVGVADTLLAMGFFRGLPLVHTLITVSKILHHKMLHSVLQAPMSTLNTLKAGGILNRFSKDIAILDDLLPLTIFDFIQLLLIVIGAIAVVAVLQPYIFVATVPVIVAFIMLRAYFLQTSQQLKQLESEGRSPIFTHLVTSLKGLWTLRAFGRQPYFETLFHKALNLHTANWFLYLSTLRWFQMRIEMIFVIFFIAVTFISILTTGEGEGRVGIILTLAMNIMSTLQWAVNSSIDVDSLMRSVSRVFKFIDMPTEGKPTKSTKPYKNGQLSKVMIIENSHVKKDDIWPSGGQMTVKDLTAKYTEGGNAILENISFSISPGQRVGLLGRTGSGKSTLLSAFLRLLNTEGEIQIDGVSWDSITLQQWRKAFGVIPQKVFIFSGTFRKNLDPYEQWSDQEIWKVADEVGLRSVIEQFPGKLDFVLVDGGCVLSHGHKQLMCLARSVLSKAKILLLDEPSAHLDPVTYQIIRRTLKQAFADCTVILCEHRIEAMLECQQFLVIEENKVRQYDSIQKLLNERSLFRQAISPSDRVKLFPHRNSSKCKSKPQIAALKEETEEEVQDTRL
SMILES,EC50,Maximum % activity (%)
"C[C@]1(C(=O)N[C@@H]2C[C@H]([C@H]3CC[C@H](C(=O)N4CCC(O)CC4)CC3)Oc3cc(OC(F)(F)F)ccc32)COc2cc3c(cc21)OC(F)(F)O3 [Example 265, (7R)-2,2-difluoro-N-[(2R,4R)-2-[trans-4-(4-hydroxypiperidine-1-carbonyl)cyclohexyl]-7-(trifluoromethoxy)-3,4-dihydro-2H-1-benzopyran-4-yl]-7-methyl-6,7-dihydro-2H-furo[2,3-f][1,3]benzodioxole-7-carboxamide]",80 nM,173%
"C[C@]1(C(=O)N[C@@H]2C[C@H]([C@H]3CC[C@H](C(=O)N4CCN(CCO)CC4)CC3)Oc3cc(OC(F)(F)F)ccc32)COc2cc3c(cc21)OC(F)(F)O3 [Example 266, (7R)-2,2-difluoro-N-[(2R,4R)-2-{trans-4-[4-(2-hydroxyethyl)piperazine-1-carbonyl]cyclohexyl}-7-(trifluoromethoxy)-3,4-dihydro-2H-1-benzopyran-4-yl]-7-methyl-6,7-dihydro-2H-furo[2,3-f][1,3]benzodioxole-7-carboxamide]",110 nM,160%
"CC(C)(O)CNC(=O)[C@H]1CC[C@H]([C@H]2C[C@@H](NC(=O)[C@@]3(C)COc4cc5c(cc43)OC(F)(F)O5)c3ccc(OC(F)(F)F)cc3O2)CC1 [Example 267, (7R)-2,2-difluoro-N-[(2R,4R)-2-{trans-4-[(2-hydroxy-2-methylpropyl)carbamoyl]cyclohexyl}-7-(trifluoromethoxy)-3,4-dihydro-2H-1-benzopyran-4-yl]-7-methyl-6,7-dihydro-2H-furo[2,3-f][1,3]benzodioxole-7-carboxamide]",90 nM,166%
"CC(C)(CO)NC(=O)[C@H]1CC[C@H]([C@H]2C[C@@H](NC(=O)[C@@]3(C)COc4cc5c(cc43)OC(F)(F)O5)c3ccc(OC(F)(F)F)cc3O2)CC1 [Example 268, (7R)-2,2-difluoro-N-[(2R,4R)-2-{trans-4-[(1-hydroxy-2-methylpropan-2-yl)carbamoyl]cyclohexyl}-7-(trifluoromethoxy)-3,4-dihydro-2H-1-benzopyran-4-yl]-7-methyl-6,7-dihydro-2H-furo[2,3-f][1,3]benzodioxole-7-carboxamide]",120 nM,186%
"C[C@]1(C(=O)N[C@@H]2C[C@H]([C@H]3CC[C@H](C(=O)NC(CO)c4ccccc4)CC3)Oc3cc(OC(F)(F)F)ccc32)COc2cc3c(cc21)OC(F)(F)O3 (stereo partly drawn) [Example 269, (7R)-2,2-difluoro-N-[(2R,4R)-2-{trans-4-[(2-hydroxy-1-phenylethyl)carbamoyl]cyclohexyl}-7-(trifluoromethoxy)-3,4-dihydro-2H-1-benzopyran-4-yl]-7-methyl-6,7-dihydro-2H-furo[2,3-f][1,3]benzodioxole-7-carboxamide]",50 nM,192%
"C[C@]1(C(=O)N[C@@H]2C[C@H]([C@H]3CC[C@H](C(=O)N4CCC(F)(F)CC4)CC3)Oc3cc(OC(F)(F)F)ccc32)COc2cc3c(cc21)OC(F)(F)O3 [Example 270, (7R)—N-[(2R,4R)-2-[trans-4-(4,4-difluoropiperidine-1-carbonyl)cyclohexyl]-7-(trifluoromethoxy)-3,4-dihydro-2H-1-benzopyran-4-yl]-2,2-difluoro-7-methyl-6,7-dihydro-2H-furo[2,3-f][1,3]benzodioxole-7-carboxamide]",180 nM,229%
"C[C@]1(C(=O)N[C@@H]2C[C@H]([C@H]3CC[C@H](C(=O)N4CCOCC4)CC3)Oc3cc(OC(F)(F)F)ccc32)COc2cc3c(cc21)OC(F)(F)O3 [Example 271, (7R)-2,2-difluoro-7-methyl-N-[(2R,4R)-2-[trans-4-(morpholine-4-carbonyl)cyclohexyl]-7-(trifluoromethoxy)-3,4-dihydro-2H-1-benzopyran-4-yl]-6,7-dihydro-2H-furo[2,3-f][1,3]benzodioxole-7-carboxamide]",60 nM,172%
"COc1ccc2c(c1)O[C@@H](COC[C@H](O)CO)C[C@H]2NC(=O)[C@@]1(C)COc2cc3c(cc21)OC(F)(F)O3 [Example 274, (7R)—N-[(2R,4R)-2-{[(2R)-2,3-dihydroxypropoxy]methyl}-7-methoxy-3,4-dihydro-2H-1-benzopyran-4-yl]-2,2-difluoro-7-methyl-6,7-dihydro-2H-furo[2,3-f][1,3]benzodioxole-7-carboxamide]",850 nM,99%

# Second part, the molecule after the results:
EC50,Maximum % activity (%),SMILES
> 20000 nM,7%,"COc1ccc2c(c1)O[C@H](COC[C@H](O)CO)C[C@@H]2NC(=O)[C@@]1(C)COc2cc3c(cc21)OC(F)(F)O3 [Example 275, (7R)—N-[(2S,4S)-2-{[(2R)-2,3-dihydroxypropoxy]methyl}-7-methoxy-3,4-dihydro-2H-1-benzopyran-4-yl]-2,2-difluoro-7-methyl-6,7-dihydro-2H-furo[2,3-f][1,3]benzodioxole-7-carboxamide]"
700 nM,117%,"COc1ccc2c(c1)O[C@@H](COCc1ccccc1)C[C@H]2NC(=O)[C@@]1(C)COc2cc3c(cc21)OC(F)(F)O3 [Example 276, (7R)—N-{(2R,4R)-2-[(benzyloxy)methyl]-7-methoxy-3,4-dihydro-2H-1-benzopyran-4-yl}-2,2-difluoro-7-methyl-6,7-dihydro-2H-furo[2,3-f][1,3]benzodioxole-7-carboxamide]"
660 nM,110%,"COc1ccc2c(c1)O[C@@H](CO)C[C@H]2NC(=O)[C@@]1(C)COc2cc3c(cc21)OC(F)(F)O3 [Example 277, (7R)-2,2-difluoro-N-[(2R,4R)-2-(hydroxymethyl)-7-methoxy-3,4-dihydro-2H-1-benzopyran-4-yl]-7-methyl-6,7-dihydro-2H-furo[2,3-f][1,3]benzodioxole-7-carboxamide]"
1540 nM,86%,"COc1ccc2c(c1)O[C@H](COCc1ccccc1)C[C@@H]2NC(=O)[C@@]1(C)COc2cc3c(cc21)OC(F)(F)O3 [Example 278, (7R)—N-{(2S,4S)-2-[(benzyloxy)methyl]-7-methoxy-3,4-dihydro-2H-1-benzopyran-4-yl}-2,2-difluoro-7-methyl-6,7-dihydro-2H-furo[2,3-f][1,3]benzodioxole-7-carboxamide]"
560 nM,119%,"C[C@]1(C(=O)N[C@@H]2C[C@H](C3(C(=O)N(CCO)CCO)CC3)Oc3cc(OC(F)(F)F)ccc32)COc2cc3c(cc21)OC(F)(F)O3 [Example 279, (7R)—N-[(2R,4R)-2-{1-[bis(2-hydroxyethyl)carbamoyl]cyclopropyl}-7-(trifluoromethoxy)-3,4-dihydro-2H-1-benzopyran-4-yl]-2,2-difluoro-7-methyl-6,7-dihydro-2H-furo[2,3-f][1,3]benzodioxole-7-carboxamide]"
> 20000 nM,10%,"C[C@]1(C(=O)N[C@H]2C[C@@H](C3(C(=O)N(CCO)CCO)CC3)Oc3cc(OC(F)(F)F)ccc32)COc2cc3c(cc21)OC(F)(F)O3 [Example 280, (7R)—N-[(2S,4S)-2-{1-[bis(2-hydroxyethyl)carbamoyl]cyclopropyl}-7-(trifluoromethoxy)-3,4-dihydro-2H-1-benzopyran-4-yl]-2,2-difluoro-7-methyl-6,7-dihydro-2H-furo[2,3-f][1,3]benzodioxole-7-carboxamide]"
1760 nM,95%,"COc1ccc2c(c1)O[C@@H](c1nnnn1Cc1ccccc1)C[C@H]2NC(=O)[C@@]1(C)COc2cc3c(cc21)OC(F)(F)O3 [Example 283, (7R)—N-[(2R,4R)-2-(1-benzyl-1H-tetrazol-5-yl)-7-methoxy-3,4-dihydro-2H-1-benzopyran-4-yl]-2,2-difluoro-7-methyl-6,7-dihydro-2H-furo[2,3-f][1,3]benzodioxole-7-carboxamide]"
3960 nM,40%,"COc1ccc2c(c1)O[C@H](Cn1ncccc1=O)C[C@@H]2NC(=O)[C@@]1(C)COc2cc3c(cc21)OC(F)(F)O3 [Example 284, (7R)-2,2-difluoro-N-{(2S,4S)-7-methoxy-2-[(6-oxopyridazin-1(6H)-yl)methyl]-3,4-dihydro-2H-1-benzopyran-4-yl}-7-methyl-6,7-dihydro-2H-furo[2,3-f][1,3]benzodioxole-7-carboxamide]"
1130 nM,54%,"COc1ccc2c(c1)O[C@@H](Cn1ncccc1=O)C[C@H]2NC(=O)[C@@]1(C)COc2cc3c(cc21)OC(F)(F)O3 [Example 285, (7R)-2,2-difluoro-N-{(2R,4R)-7-methoxy-2-[(6-oxopyridazin-1(6H)-yl)methyl]-3,4-dihydro-2H-1-benzopyran-4-yl}-7-methyl-6,7-dihydro-2H-furo[2,3-f][1,3]benzodioxole-7-carboxamide]"
210 nM,120%,"C[C@]1(C(=O)Nc2cc3cc(C4(COCc5ccccc5)CC4)n(C[C@@H](O)COCc4ccccc4)c3cc2F)COc2cc3c(cc21)OC(F)(F)O3 [Example 286, (7R)—N-(1-[(2R)-3-(benzyloxy)-2-hydroxypropyl]-2-{1-[(benzyloxy)methyl]cyclopropyl}-6-fluoro-1H-indol-5-yl)-2,2-difluoro-7-methyl-6,7-dihydro-2H-furo[2,3-f][1,3]benzodioxole-7-carboxamide]"
640 nM,199%,"CCOC(=O)C1(CN)CCC([C@H]2C[C@@H](NC(=O)[C@@]3(C)COc4cc5c(cc43)OC(F)(F)O5)c3ccc(OC(F)(F)F)cc3O2)CC1 (stereo partly drawn) [Example 287, ethyl 1-(aminomethyl)-4-[(2R,4R)-4-{[(7R)-2,2-difluoro-7-methyl-6,7-dihydro-2H-furo[2,3-f][1,3]benzodioxole-7-carbonyl]amino}-7-(trifluoromethoxy)-3,4-dihydro-2H-1-benzopyran-2-yl]cyclohexane-1-carboxylate]"
